# Measurements: patent publication US6544991B2, “Compositions and methods for treating bacterial infections” (priority 2000, dated 2003)
# Where two headings read alike, the source gives them in different places.
# Columns and labels:
# [1] = system: MRSA strains; assay: MIC by agar dilution or microbroth dilution method (NCCLS); type: cell-based, Staph. aureus; details: for MIC: Staphylococcus aureus
# Description: (§1) Bacterial isolates were obtained from human infections. The isolates were maintained frozen in a liquid nitrogen freezer and plated on Trypticase Soy Agar (TSA) plates supplemented with 5% sheep blood. The quality control strain Staph. aureus 29213 was originally acquired from the American Type Culture Collection (Rockville, Md.).
# (§2) MICs were determined by an agar dilution method or microbroth dilution method recommended by NCCLS. Synergy was assessed by agar dilution checker-board method. Minimal inhibitory concentrations (MICS) for each separate drug were determined. The fractional inhibitory concentration (FIC) values were calculated by the MIC of Drug A (e.g., sulbactam/ampicillin) and Drug B (e.g., linezolid or arbekacin) in combination/MIC of Drug A or B alone. The FIC index was determined according to the following formula: [formula]
# [2] = system: Staph. aureus 29213; assay: MIC, quality control strain; type: cell-based; details: for MIC: Staphylococcus aureus, read-out: MIC Values
# Description: as §1, §2
# [3] = system: VRSA strains; assay: MIC by agar dilution or microbroth dilution method (NCCLS), VRSA strains; type: cell-based, Staph. aureus; details: VRSA strains (n = 10); for MIC: Staphylococcus aureus
# Description: as §1, §2
# In total, 48 MRSA strains were tested, including ten VRSA strains isolated from five different countries in the world, 33 MRSA strains isolated from ten Japanese university hospitals, and five MRSA type strains from Juntendo University, Department of Bacteriology, Tokyo, Japan.
compound,measurement,setting,value
teicoplanin,MICs 50%,[1]; MRSA strains (n = 38),1 mg/L
same,MICs 90%,[1]; MRSA strains (n = 38),2 mg/L
same,MICs Range,[1]; MRSA strains (n = 38),0.5 to 4 mg/L
same,MIC Values,[1]; strain 85/2082,1 µg/mL
same,MIC Values,[1]; strain 99.3700W,4 µg/mL
same,MIC Values,[1]; strain 99.3759V,16 µg/mL
same,MIC Values,[1]; strain AMC 11094,16 µg/mL
same,MIC Values,[1]; strain BM12612(new),4 µg/mL
same,MIC Values,[1]; strain H1,4 µg/mL
same,MIC Values,[1]; strain HIP 5827,16 µg/mL
same,MIC Values,[1]; strain HIP 5836,8 µg/mL
same,MIC Values,[1]; strain HIP 6297,4 µg/mL
same,MIC Values,[1]; strain HIP 7737,16 µg/mL
same,MIC Values,[1]; strain JSCC 340,1 µg/mL
same,MIC Values,[1]; strain JSCC 351,1 µg/mL
same,MIC Values,[1]; strain JSCC 363,1 µg/mL
same,MIC Values,[1]; strain JSCC 381,1 µg/mL
same,MIC Values,[1]; strain JSCC 390,1 µg/mL
same,MIC Values,[1]; strain JSCC 401,2 µg/mL
same,MIC Values,[1]; strain JSCC 413,2 µg/mL
same,MIC Values,[1]; strain JSCC 431,0.5 µg/mL
same,MIC Values,[1]; strain JSCC 440,2 µg/mL
same,MIC Values,[1]; strain JSCC 451,2 µg/mL
same,MIC Values,[1]; strain JSCC 463,1 µg/mL
same,MIC Values,[1]; strain JSCC 481,2 µg/mL
same,MIC Values,[1]; strain JSCC 490,2 µg/mL
same,MIC Values,[1]; strain JSCC 501,2 µg/mL
same,MIC Values,[1]; strain JSCC 513,1 µg/mL
same,MIC Values,[1]; strain JSCC 531,1 µg/mL
same,MIC Values,[1]; strain JSCC 540,1 µg/mL
same,MIC Values,[1]; strain JSCC 551,1 µg/mL
same,MIC Values,[1]; strain JSCC 563,2 µg/mL
same,MIC Values,[1]; strain JSCC 581 (lacks the mecA gene),8 µg/mL
same,MIC Values,[1]; strain JSCC 590 (lacks the mecA gene),8 µg/mL
same,MIC Values,[1]; strain JSCC 601,1 µg/mL
same,MIC Values,[1]; strain JSCC 640,1 µg/mL
same,MIC Values,[1]; strain JSCC 651,2 µg/mL
same,MIC Values,[1]; strain JSCC 663,1 µg/mL
same,MIC Values,[1]; strain JSCC 681,0.5 µg/mL
same,MIC Values,[1]; strain JSCC 690,1 µg/mL
same,MIC Values,[1]; strain JSCC 701,1 µg/mL
same,MIC Values,[1]; strain JSCC 713,2 µg/mL
same,MIC Values,[1]; strain JSCC 731,1 µg/mL
same,MIC Values,[1]; strain JSCC 740,1 µg/mL
same,MIC Values,[1]; strain JSCC 751,1 µg/mL
same,MIC Values,[1]; strain JSCC 763,1 µg/mL
same,MIC Values,[1]; strain JSCC 781,4 µg/mL
same,MIC Values,[1]; strain JSCC 870,1 µg/mL
same,MIC Values,[1]; strain LIM 2,8 µg/mL
same,MIC Values,[1]; strain Mu 3,8 µg/mL
same,MIC Values,[1]; strain Mu 50,16 µg/mL
same,MIC Values,[1]; strain N315,0.5 µg/mL
same,MIC Values,[1]; strain NCTC 10442,2 µg/mL
same,MIC Values,"[2]; strain ATCC 29213, control sample (Ex. 26)",1 µg/mL
same,MIC Values,"[2]; strain ATCC29213, control sample (Ex. 37)",1 µg/mL
same,MICs Range,[3],4 to 16 mg/L
"NCC[C@H](O)C(=O)N[C@@H]1C[C@H](N)[C@@H](O[C@H]2O[C@H](CN)CC[C@H]2N)[C@H](O)[C@H]1O[C@H]1O[C@H](CO)[C@@H](O)[C@H](N)[C@H]1O [ABK, arbekacin]",MICs Range,[1]; MRSA strains (n = 38),0.125 to 4 mg/L
same,MIC,"[1]; MRSA / NCTC 10442, strain NCTC 10442, read-out: MIC Values",0.125 µg/mL
same,MIC,"[1]; MRSA, MRSA strains (n = 38), read-out: MICs 50%",0.5 µg/mL
same,MIC,"[1]; MRSA, MRSA strains (n = 38), read-out: MICs 90%",2 µg/mL
same,MIC,"[1]; MRSA, strain 85/2082, read-out: MIC Values",0.25 µg/mL
same,MIC,"[1]; MRSA, strain 99.3700W, read-out: MIC Values",4 µg/mL
same,MIC,"[1]; MRSA, strain 99.3759V, read-out: MIC Values",2 µg/mL
same,MIC,"[1]; MRSA, strain AMC 11094, read-out: MIC Values",0.25 µg/mL
same,MIC,"[1]; MRSA, strain BM12612(new), read-out: MIC Values",2 µg/mL
same,MIC,"[1]; MRSA, strain H1, read-out: MIC Values",1 µg/mL
same,MIC,"[1]; MRSA, strain HIP 5827, read-out: MIC Values",1 µg/mL
same,MIC,"[1]; MRSA, strain HIP 5836, read-out: MIC Values",1 µg/mL
same,MIC,"[1]; MRSA, strain HIP 6297, read-out: MIC Values",0.125 µg/mL
same,MIC,"[1]; MRSA, strain HIP 7737, read-out: MIC Values",0.125 µg/mL
same,MIC,"[1]; MRSA, strain JSCC 340, read-out: MIC Values",1 µg/mL
same,MIC,"[1]; MRSA, strain JSCC 351, read-out: MIC Values",1 µg/mL
same,MIC,"[1]; MRSA, strain JSCC 363, read-out: MIC Values",1 µg/mL
same,MIC,"[1]; MRSA, strain JSCC 381, read-out: MIC Values",0.5 µg/mL
same,MIC,"[1]; MRSA, strain JSCC 390, read-out: MIC Values",0.5 µg/mL
same,MIC,"[1]; MRSA, strain JSCC 401, read-out: MIC Values",0.5 µg/mL
same,MIC,"[1]; MRSA, strain JSCC 413, read-out: MIC Values",1 µg/mL
same,MIC,"[1]; MRSA, strain JSCC 431, read-out: MIC Values",1 µg/mL
same,MIC,"[1]; MRSA, strain JSCC 440, read-out: MIC Values",0.25 µg/mL
same,MIC,"[1]; MRSA, strain JSCC 451, read-out: MIC Values",4 µg/mL
same,MIC,"[1]; MRSA, strain JSCC 463, read-out: MIC Values",0.5 µg/mL
same,MIC,"[1]; MRSA, strain JSCC 481, read-out: MIC Values",1 µg/mL
same,MIC,"[1]; MRSA, strain JSCC 490, read-out: MIC Values",0.5 µg/mL
same,MIC,"[1]; MRSA, strain JSCC 501, read-out: MIC Values",0.5 µg/mL
same,MIC,"[1]; MRSA, strain JSCC 513, read-out: MIC Values",0.25 µg/mL
same,MIC,"[1]; MRSA, strain JSCC 531, read-out: MIC Values",0.5 µg/mL
same,MIC,"[1]; MRSA, strain JSCC 540, read-out: MIC Values",1 µg/mL
same,MIC,"[1]; MRSA, strain JSCC 551, read-out: MIC Values",2 µg/mL
same,MIC,"[1]; MRSA, strain JSCC 563, read-out: MIC Values",0.125 µg/mL
same,MIC,"[1]; MRSA, strain JSCC 581 (lacks the mecA gene), read-out: MIC Values",0.5 µg/mL
same,MIC,"[1]; MRSA, strain JSCC 590 (lacks the mecA gene), read-out: MIC Values",0.25 µg/mL
same,MIC,"[1]; MRSA, strain JSCC 601, read-out: MIC Values",0.25 µg/mL
same,MIC,"[1]; MRSA, strain JSCC 640, read-out: MIC Values",2 µg/mL
same,MIC,"[1]; MRSA, strain JSCC 651, read-out: MIC Values",1 µg/mL
same,MIC,"[1]; MRSA, strain JSCC 663, read-out: MIC Values",0.5 µg/mL
same,MIC,"[1]; MRSA, strain JSCC 681, read-out: MIC Values",1 µg/mL
same,MIC,"[1]; MRSA, strain JSCC 690, read-out: MIC Values",2 µg/mL
same,MIC,"[1]; MRSA, strain JSCC 701, read-out: MIC Values",1 µg/mL
same,MIC,"[1]; MRSA, strain JSCC 713, read-out: MIC Values",2 µg/mL
same,MIC,"[1]; MRSA, strain JSCC 731, read-out: MIC Values",0.5 µg/mL
same,MIC,"[1]; MRSA, strain JSCC 740, read-out: MIC Values",0.125 µg/mL
same,MIC,"[1]; MRSA, strain JSCC 751, read-out: MIC Values",2 µg/mL
same,MIC,"[1]; MRSA, strain JSCC 763, read-out: MIC Values",0.25 µg/mL
same,MIC,"[1]; MRSA, strain JSCC 781, read-out: MIC Values",2 µg/mL
same,MIC,"[1]; MRSA, strain JSCC 870, read-out: MIC Values",0.5 µg/mL
same,MIC,"[1]; MRSA, strain LIM 2, read-out: MIC Values",1 µg/mL
same,MIC,"[1]; MRSA, strain Mu 3, read-out: MIC Values",2 µg/mL
same,MIC,"[1]; MRSA, strain Mu 50, read-out: MIC Values",4 µg/mL
same,MIC,"[1]; MRSA, strain N315, read-out: MIC Values",0.5 µg/mL
same,MIC,"[2]; ATCC29213, strain ATCC 29213, control sample (Ex. 26)",0.25 µg/mL
same,MIC,"[2]; ATCC29213, strain ATCC29213, control sample (Ex. 37)",0.25 µg/mL
same,MIC,[3]; read-out: MICs 50%,1 µg/mL
same,MIC,[3]; read-out: MICs 90%,4 µg/mL
same,MICs Range,[3],0.125 to 4 mg/L
